# Experimental data: patent US8722014B2, “1 H-[1, 2, 3] triazole substituted amino acids and uses thereof” (Washington University, priority 2009, dated 2014)
# “And” between values parts separate entries of the source, which are not always exact repeats. Identical values can stand only once. Like-named read-outs stand apart in the source and are kept apart here.
# System: subcutaneous 9L gliosarcoma tumors
# Protocol: Biodistribution studies were performed with both enantiomers, (R)-[^18F]4 and (S)-[^18F]4, using Fischer 344 rats (Charles River Laboratories, Wilmington Mass., USA) implanted with subcutaneous 9L gliosarcoma tumors. The tumors were implanted by subcutaneous injection of a suspension of approximately 1×10^69L gliosarcoma cells into the flanks of the rats. The tumors were allowed to grow for 3 weeks prior to the study. The rats were allowed food and water ad libitum prior to the biodistribution study. Anesthesia was achieved using a mixture of 1% isoflurane in oxygen, and the radiolabeled amino acid (R)-[^18F]4 or (S)-[^18F]4 was injected intravenously through a tail vein. The animals were euthanized in groups of four for each enantiomer at 5, 30 or 60 minutes after injection. The organs and tissues of interest and the tumors were dissected and weighed, and the amounts of activity were measured and decay corrected to the time of injection with a gamma counter. Standards for the doses were also measured with a gamma counter, and the data were normalized as the percent of total dose per gram of tissue (% ID/g) for each sample. The data were analyzed using GraphPad Prism software with 1-way ANOVAs for each enantiomer at each time point with Bonferroni post-tests. The tumor and brain uptake of radioactivity was directly compared for both enantiomers at each time point with a 2-way ANOVA with Bonferroni post-test. p-values less than or equal to 0.05 were considered statistically significant.
compound,measurement,setting,value
"Cl.N[C@@H](Cc1cn(CC[18F])nn1)C(=O)O [(S)-[^18F]4, (S)-2-amino-3-[1-(2-fluoroethyl)-1H-[1,2,3]triazol-4-yl]propanoic acid hydrochloride salt-[^18F]]",biodistribution: blood,5 min after i.v. injection,0.98 ± 0.152 % ID/g
same,biodistribution: bone,5 min after i.v. injection,0.47 ± 0.065 % ID/g
same,biodistribution: brain,5 min after i.v. injection,0.08 ± 0.011 % ID/g
same,biodistribution: fat,5 min after i.v. injection,0.09 ± 0.020 % ID/g
same,biodistribution: heart,5 min after i.v. injection,0.43 ± 0.048 % ID/g
same,biodistribution: kidney,5 min after i.v. injection,11.02 ± 1.224 % ID/g
same,biodistribution: large intestine,5 min after i.v. injection,0.14 ± 0.012 % ID/g
same,biodistribution: liver,5 min after i.v. injection,0.34 ± 0.035 % ID/g
same,biodistribution: lung,5 min after i.v. injection,0.87 ± 0.117 % ID/g
same,biodistribution: muscle,5 min after i.v. injection,0.18 ± 0.030 % ID/g
same,biodistribution: pancreas,5 min after i.v. injection,2.75 ± 0.634 % ID/g
same,biodistribution: salivary gland,5 min after i.v. injection,0.74 ± 0.043 % ID/g
same,biodistribution: small intestine,5 min after i.v. injection,0.69 ± 0.076 % ID/g
same,biodistribution: spleen,5 min after i.v. injection,0.72 ± 0.054 % ID/g
same,biodistribution: testes,5 min after i.v. injection,0.21 ± 0.013 % ID/g
same,biodistribution: thyroid,5 min after i.v. injection,0.71 ± 0.117% of total dose per organ
same,biodistribution: tumor,5 min after i.v. injection,0.47 ± 0.069 % ID/g
same,tumor:brain ratio,5 min after i.v. injection,5.9
same,tumor bone (femur) ratio,"30 min, biodistribution study",2.3
same,tumor to muscle ratio,"30 min, biodistribution study",4.7
same,biodistribution: blood,30 min after i.v. injection,0.47 ± 0.101 % ID/g
same,biodistribution: bone,30 min after i.v. injection,0.36 ± 0.068 % ID/g
same,biodistribution: brain,30 min after i.v. injection,0.06 ± 0.008 % ID/g
same,biodistribution: fat,30 min after i.v. injection,0.05 ± 0.010 % ID/g
same,biodistribution: heart,30 min after i.v. injection,0.38 ± 0.066 % ID/g
same,biodistribution: kidney,30 min after i.v. injection,11.41 ± 1.939 % ID/g
same,biodistribution: large intestine,30 min after i.v. injection,0.15 ± 0.028 % ID/g
same,biodistribution: liver,30 min after i.v. injection,0.43 ± 0.091 % ID/g
same,biodistribution: lung,30 min after i.v. injection,0.83 ± 0.179 % ID/g
same,biodistribution: muscle,30 min after i.v. injection,0.18 ± 0.037 % ID/g
same,biodistribution: pancreas,30 min after i.v. injection,2.20 ± 0.747 % ID/g
same,biodistribution: salivary gland,30 min after i.v. injection,0.66 ± 0.139 % ID/g
same,biodistribution: small intestine,30 min after i.v. injection,0.54 ± 0.073 % ID/g
same,biodistribution: spleen,30 min after i.v. injection,0.75 ± 0.123 % ID/g
same,biodistribution: testes,30 min after i.v. injection,0.17 ± 0.033 % ID/g
same,biodistribution: thyroid,30 min after i.v. injection,0.44 ± 0.102% of total dose per organ
same,biodistribution: tumor,30 min after i.v. injection,0.83 % ID/g and 0.83 ± 0.142 % ID/g
same,tumor:brain ratio,30 min after i.v. injection,14.6
same,tumor to lung ratio,60 min,1.3
same,tumor to spleen ratio,60 min,1.5
same,tumor to normal tissue ratios,"60 min, except in the lung and the spleen",at least 2
same,biodistribution: blood,60 min after i.v. injection,0.23 ± 0.015 % ID/g
same,biodistribution: bone,60 min after i.v. injection,0.23 ± 0.011 % ID/g
same,biodistribution: brain,60 min after i.v. injection,0.05 ± 0.001 % ID/g
same,biodistribution: fat,60 min after i.v. injection,0.04 ± 0.007 % ID/g
same,biodistribution: heart,60 min after i.v. injection,0.30 ± 0.011 % ID/g
same,biodistribution: kidney,60 min after i.v. injection,4.79 ± 0.378 % ID/g
same,biodistribution: large intestine,60 min after i.v. injection,0.10 ± 0.012 % ID/g
same,biodistribution: liver,60 min after i.v. injection,0.32 ± 0.021 % ID/g
same,biodistribution: lung,60 min after i.v. injection,0.56 ± 0.085 % ID/g
same,biodistribution: muscle,60 min after i.v. injection,0.16 ± 0.006 % ID/g
same,biodistribution: pancreas,60 min after i.v. injection,1.12 ± 0.151 % ID/g
same,biodistribution: salivary gland,60 min after i.v. injection,0.36 ± 0.037 % ID/g
same,biodistribution: small intestine,60 min after i.v. injection,0.31 ± 0.024 % ID/g
same,biodistribution: spleen,60 min after i.v. injection,0.47 ± 0.035 % ID/g
same,biodistribution: testes,60 min after i.v. injection,0.11 ± 0.006 % ID/g
same,biodistribution: thyroid,60 min after i.v. injection,0.30 ± 0.024% of total dose per organ
same,biodistribution: tumor,60 min after i.v. injection,0.72 ± 0.098 % ID/g
same,tumor:brain ratio,60 min after i.v. injection,15.2
same,magnitude of tumor uptake compared with the (R)-enantiomer,"at all 3 time points, p<0.001",higher
same,maximal tumor to brain ratio,biodistribution study,15
